Measured values reported in patent publication US8501483B2, “Method of assessing cancer status in a breast cancer patient” (University College Dublin, National University of Ireland, …, priority 2008, dated 2013).

Experiments:
HOX-C11 = experiment: Immunocytochemistry of HOX-C11 in tamoxifen-resistant cells; type: cell-based
From the text: (§1) Increased interactions between HOX-C11 and SRC-1 were found in endocrine resistant versus endocrine sensitive breast cancer. Furthermore these interactions were enhanced in the presence of endocrine modulators, tamoxifen and faslodex (FIG. 1). In primary breast cancer tissue HOX-C11 and SRC-1 were co-localised to the nucleus and perinuclear region of the tumour epithelial cells (FIG. 2). A greater interaction occurred in tamoxifen-resistant LY2 cells, compared with the parent MCF-7 sensitive cell line. HOX genes play a central role in ductal formation and lobulo-aleolar development by regulating epithelial proliferation and differentiation in the developing breast and have been implicated in steroid/growth-factor pathway crosstalk. […] S100β has been identified as a possible target gene of the HOX-C11 transcription factor. Several HOX responsive elements have been identified in the promoter of S100β and forced expression of HOX-C11 in neuronal cells induces expression of S100β. This family of calcium binding protein is secreted and has previously been associated with poor outcome and reduced disease-free survival in melanoma. Experimental data provides evidence for a functional interaction between SRC-1 and HOX-C11. Knockdown of SRC-1 using siRNA abrogated the HOX-C11 associated induction of S100β (FIG. 4B). […]

[1] = test system: interactions between SRC-1 and HOX-C11; experiment: Immunoprecipitation of SRC-1 and subsequent immunoblot for HOX-C11 in endocrine resistant LY2 cells; type: cell-based; settings: endocrine resistant breast cancer LY2 cells, 10^−8 M, FIG. 1
Method: FIG. 1: Confirmation of differential interactions between SRC-1 and HOX-C11 in endocrine resistant breast cancer LY2 cells in the presence of tamoxifen (4-OHT) and faslodex (ICI) (10^−8 M) was performed by immunoprecipitation of SRC-1 and subsequent immunoblot for HOX-C11.
as §1, with “S100β.” for “S100β. This family of calcium binding protein is secreted and has previously been associated with poor outcome and reduced disease-free survival in melanoma. Experimental data provides evidence for a functional interaction between SRC-1 and HOX-C11. Knockdown of SRC-1 using siRNA abrogated the HOX-C11 associated induction of S100β (FIG. 4B).”

## CC/C(=C(\c1ccccc1)c1ccc(OCCN(C)C)cc1)c1ccccc1 [tamoxifen]
HOX-C11
  HOX-C11 localisation when cells were treated: translocate to the nucleus and peri-nuclear region
[1]
  interactions between HOX-C11 and SRC-1: enhanced

## C[C@]12CC[C@@H]3c4ccc(O)cc4C[C@@H](CCCCCCCCC[S+]([O-])CCCC(F)(F)C(F)(F)F)[C@H]3[C@@H]1CC[C@@H]2O (stereo partly shown) [faslodex]
HOX-C11
  HOX-C11 localisation when cells were treated: translocate to the nucleus and peri-nuclear region
[1]
  interactions between HOX-C11 and SRC-1: enhanced
